# Results: patent US7129366B2, “Group of a novel anti-cancer compounds with specific structure” (Yang's Biochem Co. Ltd., priority 2001, dated 2006)
# Like-named read-outs stand apart in the source and are kept apart here. Marks after values point to notes of the source that are not given here.
# Experiments:
# [1] = system: serum hemolysinogenesis; assay type: in vivo, ICR strain mice
# Method: The method of administration in each group was the same as above (phagocytic function). However, on the 6th day after administration, 0.2 ml 3:5 (V/V) sheep red blood cell (RBC) suspension was injected i.p. into each mouse. 4 days later (day 10), blood was drawn from all animals and serum was prepared and then diluted 600 times. 1 ml diluted serum was mixed with 0.5 ml 10% sheep RBC suspension. N.S. was used as blank control. All samples were incubated at 37° C. for 30 minutes, and centrifuged (2000 rev/min) for 5 minutes. The supernatant was collected for measurement of OD540 and HC50 was calculated.
# [2] = system: reticuloendothelial system; assay: Phagocytic function of reticuloendothelial system, serum clearance index of carbon grain; assay type: in vivo, ICR strain mice
# Method: One group was given N.S. at 20 ml/kg i.g. as a normal control. A positive control group was given CTX i.g. at 25 mg/kg on day 1 and 6.
# [3] = system: mouse sarcoma S180; assay: Mouse sarcoma S180 model, inhibition of tumor growth
# Method: 50 female ICR strain mice, weighing 19–22 g, were randomly divided into 5 groups of 10 each. S180 sarcoma mass (about 2 mm^3 each) was transplanted subcutaneously into the right armpits of all animals following standard procedure. 3 test groups were given N-(12-methyl-tridecyl)hydrazine hydrochloride (Sample) at 0.1, 0.2, and 0.4 g/kg intragastrically (i.g.) daily for 11 days. The positive control group was given a single dose of cytoxan (CTX) i.g. (25 mg/kg) on day 1. The negative control group was given 0.8% Tween 80 at 0.4 ml/10 g daily for 11 days. On the 12th day, all mice were sacrificed and the tumor was isolated and weighed. The rate of inhibition of tumor growth was calculated and subject to t-test.
# [4] = system: immune organs (thymus and pancreas); assay: Weights of immune organs (organ indices); assay type: in vivo, ICR strain mice
# From the text: The mice were sacrificed after the Serum hemolysinogenesis test above and the thymus and pancreas were collected and weighed.
# [5] = system: oral adnoma and tongue cancer; assay: Topical application to patients of oral adnoma and tongue cancer; assay type: in vivo, human; settings: oil state applied directly on focus surface, about one week later
# From the text: 12-Methyl-2-tetradecenoic acid in an oil state was directly applied on the focus surface of oral or tongue to patients of oral adnoma and tongue cancer.
# [6] = system: body skin ulcerous wounds (inflammation); assay: Topical application to patients with body skin ulcerous wounds; assay type: in vivo, human; settings: oil state applied directly on inflamed surface
# From the text: 12-Methyl-2-tetradecenoic acid in an oil state was directly applied on the inflamed surface of patients with body skin ulcerous wounds.
# [7] = system: UVB-induced skin cancer; assay: Prevention of ultraviolet B ray (UVB)-induced skin cancer, DMBA-initiated; assay type: in vivo, SKH-1 hairless mice; settings: topical 200 μl of 10% Sample solution once a day, UVB 180 mJ/cm^2 per day, end of 30 weeks
# Method: N-(12-methyl-tridecyl)hydrazine hydrochloride (Sample) was resolved with 0.8% Tween resulting in a final concentration of 10%.
# Forty female SKH-1 hairless mice were randomly divided into control and test groups of 20 each. Each mouse in both groups was treated topically once with DMBA (5.12 μg dissolved in 200 μl acetone solution) to achieve tumor initiation. One week later (day 8), animals in test group started to receive topical application of 200 μl. Sample solution once a day. The control group received 200 μl Tween 80 solvent instead every day. Thirty minutes after the application, animals in both groups were exposed to UVB (290–320 nm) radiation at the dosage of 180 mJ/cm^2 per day to induce growth of tumor. The animals were evaluated for tumor development at the end of 30 weeks.
# [8] = Sample 0.1 g/kg i.g. + CTX 25 mg/kg
# [9] = Sample 0.4 g/kg i.g. + CTX 25 mg/kg
# [10] = normal mice, Sample 0.4 g/kg i.g.
compound,measurement,setting,value
"O=P1(N(CCCl)CCCl)NCCCO1 (centres unmarked) [CTX, cytoxan, reference compound]",HC50 (X ± SD),[1]; CTX 25 mg/kg i.g. alone,21.83 ± 4.29
same,"K (X ± SD), serum clearance index of carbon grain",[2]; CTX 25 mg/kg i.g. on day 1 and 6 alone,0.0260 ± 0.0116
same,Inhibition Rate,[3]; CTX 25 mg/kg i.g. single dose on day 1,71.82%
same,Tumor Weight (X ± SD),"[3]; CTX 25 mg/kg i.g. single dose on day 1, 12th day",0.31 ± 0.11^b g
same,Body Weight after treatment (X ± SD),"[3]; S180 mice, CTX 25 mg/kg i.g. single dose on day 1",25.6 ± 1.6 g
same,Indices of pancreas,[4]; CTX 25 mg/kg i.g. alone,2.154 ± 1.189^ mg/10 g avoirdupois
same,Indices of thymus,[4]; CTX 25 mg/kg i.g. alone,1.296 ± 0.665^ mg/10 g avoirdupois
"CCC(C)CCCCCCCC/C=C/C(=O)O (centres unmarked) [Compound 1, 12-Methyl-2-tetradecenoic acid]",effect on focus of oral adnoma and tongue cancer,[5],"the focus reduced, swelling disappeared"
same,anti-inflammation function compared to common anti-inflammatory cream,[6],better anti-inflammation function
same,healing of ulcerous wound,[6],the ulcerous wound healed quickly
"CC(C)CCCCCCCCCCCNN.Cl [Compound 45, N-(12-methyl-tridecyl)hydrazine hydrochloride]",HC50 (X ± SD),[1]; [8],22.45 ± 4.12
same,HC50 (X ± SD),[1]; [9],24.01 ± 3.87
same,HC50 (X ± SD),"[1]; normal mouse, Sample 0.4 g/kg i.g.",32.08 ± 5.06
same,effects on serum hemolysinogenesis,[1]; normal or immune-compromised mouse,no obvious effects
same,effect on the clearance of Carbon grain,"[2]; CTX-treated mouse, Sample 100 and 400 mg/kg",improve the clearance of Carbon grain in CTX-treated mouse to a certain extent
same,"K (X ± SD), serum clearance index of carbon grain",[2]; Sample 100 mg/kg i.g. daily for 9 days + CTX 25 mg/kg on day 1 and 6,0.0433 ± 0.0401
same,"K (X ± SD), serum clearance index of carbon grain",[2]; Sample 400 mg/kg i.g. daily for 9 days + CTX 25 mg/kg on day 1 and 6,0.0603 ± 0.0371
same,effect on the Clearance Index of Carbon grain,"[2]; normal mouse (P1,3>0.05)",no obvious effect
same,"K (X ± SD), serum clearance index of carbon grain","[2]; normal mouse, Sample 400 mg/kg i.g. daily for 9 days",0.0792 ± 0.0230
same,average size of cancer smaller than control,[7],85%
same,reduction in tumor incidence compared to control group,[7],45%
same,Inhibition Rate,[3]; Sample 100 mg/kg i.g. daily for 11 days,36.36%
same,Tumor Weight (X ± SD),"[3]; Sample 100 mg/kg i.g. daily for 11 days, 12th day",0.70 ± 0.12^b g
same,Inhibition Rate,[3]; Sample 200 mg/kg i.g. daily for 11 days,62.73%
same,Tumor Weight (X ± SD),"[3]; Sample 200 mg/kg i.g. daily for 11 days, 12th day",0.41 ± 0.10^b g
same,Inhibition Rate,[3]; Sample 400 mg/kg i.g. daily for 11 days,70.00%
same,Tumor Weight (X ± SD),"[3]; Sample 400 mg/kg i.g. daily for 11 days, 12th day",0.33 ± 0.10^b g
same,Indices of pancreas,[4]; [8],2.459 ± 0.799^ mg/10 g avoirdupois
same,Indices of thymus,[4]; [8],2.448 ± 0.603^a mg/10 g avoirdupois
same,Indices of pancreas,[4]; [9],3.506 ± 1.223^ mg/10 g avoirdupois
same,Indices of thymus,[4]; [9],3.307 ± 0.721^a mg/10 g avoirdupois
same,indices of immune organs after combined administration,"[4]; mice treated by CTX, combined with Sample",these indices increased
same,effect on the indices of immune organs,"[4]; normal mice, thymus and pancreas (P1,3>0.05)",no significant effect
same,Indices of pancreas,[4]; [10],4.541 ± 0.508^a mg/10 g avoirdupois
same,Indices of thymus,[4]; [10],3.617 ± 1.334^a mg/10 g avoirdupois
